# Calls of active or inactive are those of the source. For most assays here, no stated cut-off is given here; in the data, actives have a measured Kd and inactives only a lower limit.
# Columns and labels:
# [1] = biological target: T1, Glycogen phosphorylase, liver form (Homo sapiens, UniProt P06737); type: subcellular, K-562, COLO 205, SK-N-BE(2) and MV-4-11, Cell lysate; settings: read-out: Kd apparent
# T1 sequence (P06737 whole entry): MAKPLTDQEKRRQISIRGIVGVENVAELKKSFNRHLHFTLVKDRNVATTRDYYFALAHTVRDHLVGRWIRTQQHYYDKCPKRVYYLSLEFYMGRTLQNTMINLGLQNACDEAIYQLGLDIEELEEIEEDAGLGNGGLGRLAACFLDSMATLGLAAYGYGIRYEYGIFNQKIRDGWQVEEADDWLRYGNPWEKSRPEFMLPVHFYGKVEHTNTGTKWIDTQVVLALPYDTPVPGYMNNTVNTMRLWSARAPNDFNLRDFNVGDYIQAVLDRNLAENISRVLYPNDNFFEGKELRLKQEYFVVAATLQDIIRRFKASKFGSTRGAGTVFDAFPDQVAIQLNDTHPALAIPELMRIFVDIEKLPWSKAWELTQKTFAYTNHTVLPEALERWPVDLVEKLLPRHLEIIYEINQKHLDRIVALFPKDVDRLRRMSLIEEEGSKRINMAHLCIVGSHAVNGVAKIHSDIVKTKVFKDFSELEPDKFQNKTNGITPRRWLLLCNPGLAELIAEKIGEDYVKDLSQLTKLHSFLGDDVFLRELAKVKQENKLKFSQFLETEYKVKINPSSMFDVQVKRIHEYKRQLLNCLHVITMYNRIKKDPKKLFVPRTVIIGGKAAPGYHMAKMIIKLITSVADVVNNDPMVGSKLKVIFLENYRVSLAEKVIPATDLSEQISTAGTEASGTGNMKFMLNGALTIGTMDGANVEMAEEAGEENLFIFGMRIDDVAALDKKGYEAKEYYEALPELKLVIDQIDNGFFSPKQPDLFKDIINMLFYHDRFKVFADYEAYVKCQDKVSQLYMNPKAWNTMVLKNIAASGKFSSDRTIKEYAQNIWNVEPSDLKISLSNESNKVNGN
# Aurora kinase B = Aurora kinase B (Homo sapiens, UniProt Q96GD4)
# Chain of Aurora kinase B (Q96GD4 whole entry): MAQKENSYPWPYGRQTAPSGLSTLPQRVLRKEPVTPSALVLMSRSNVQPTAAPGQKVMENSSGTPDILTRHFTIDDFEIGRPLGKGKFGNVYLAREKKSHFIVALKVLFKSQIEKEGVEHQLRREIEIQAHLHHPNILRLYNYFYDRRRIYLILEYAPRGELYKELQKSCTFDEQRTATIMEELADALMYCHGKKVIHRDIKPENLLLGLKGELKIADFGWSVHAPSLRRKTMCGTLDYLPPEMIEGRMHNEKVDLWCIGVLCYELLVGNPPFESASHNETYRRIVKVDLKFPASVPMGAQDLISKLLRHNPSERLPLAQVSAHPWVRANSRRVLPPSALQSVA
# [2] = biological target: Serine/threonine-protein kinase B-raf (Homo sapiens, UniProt P15056)
# Chain of Serine/threonine-protein kinase B-raf (P15056 whole entry): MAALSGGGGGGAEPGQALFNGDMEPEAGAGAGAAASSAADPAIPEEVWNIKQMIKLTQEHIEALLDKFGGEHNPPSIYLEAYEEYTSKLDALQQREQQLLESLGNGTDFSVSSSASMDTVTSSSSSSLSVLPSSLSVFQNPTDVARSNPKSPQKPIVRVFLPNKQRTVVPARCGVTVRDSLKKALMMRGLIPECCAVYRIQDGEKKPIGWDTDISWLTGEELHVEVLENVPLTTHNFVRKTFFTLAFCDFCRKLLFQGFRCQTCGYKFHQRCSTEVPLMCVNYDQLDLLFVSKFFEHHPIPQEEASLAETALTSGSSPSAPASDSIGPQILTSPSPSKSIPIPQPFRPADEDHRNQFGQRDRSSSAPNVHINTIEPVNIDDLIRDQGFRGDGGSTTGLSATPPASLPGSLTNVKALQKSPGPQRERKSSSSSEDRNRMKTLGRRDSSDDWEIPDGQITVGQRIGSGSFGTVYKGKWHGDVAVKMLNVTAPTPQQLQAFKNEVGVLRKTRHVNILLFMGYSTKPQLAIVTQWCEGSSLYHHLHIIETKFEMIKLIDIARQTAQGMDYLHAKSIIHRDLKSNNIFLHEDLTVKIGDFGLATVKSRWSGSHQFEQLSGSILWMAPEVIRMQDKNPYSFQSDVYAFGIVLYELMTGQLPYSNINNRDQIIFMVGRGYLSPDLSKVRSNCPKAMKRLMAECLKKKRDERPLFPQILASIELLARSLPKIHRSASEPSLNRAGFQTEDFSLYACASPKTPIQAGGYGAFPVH
# [3] = biological target: Cyclin-dependent kinase 12 (Homo sapiens, UniProt Q9NYV4)
# Chain of Cyclin-dependent kinase 12 (Q9NYV4 whole entry): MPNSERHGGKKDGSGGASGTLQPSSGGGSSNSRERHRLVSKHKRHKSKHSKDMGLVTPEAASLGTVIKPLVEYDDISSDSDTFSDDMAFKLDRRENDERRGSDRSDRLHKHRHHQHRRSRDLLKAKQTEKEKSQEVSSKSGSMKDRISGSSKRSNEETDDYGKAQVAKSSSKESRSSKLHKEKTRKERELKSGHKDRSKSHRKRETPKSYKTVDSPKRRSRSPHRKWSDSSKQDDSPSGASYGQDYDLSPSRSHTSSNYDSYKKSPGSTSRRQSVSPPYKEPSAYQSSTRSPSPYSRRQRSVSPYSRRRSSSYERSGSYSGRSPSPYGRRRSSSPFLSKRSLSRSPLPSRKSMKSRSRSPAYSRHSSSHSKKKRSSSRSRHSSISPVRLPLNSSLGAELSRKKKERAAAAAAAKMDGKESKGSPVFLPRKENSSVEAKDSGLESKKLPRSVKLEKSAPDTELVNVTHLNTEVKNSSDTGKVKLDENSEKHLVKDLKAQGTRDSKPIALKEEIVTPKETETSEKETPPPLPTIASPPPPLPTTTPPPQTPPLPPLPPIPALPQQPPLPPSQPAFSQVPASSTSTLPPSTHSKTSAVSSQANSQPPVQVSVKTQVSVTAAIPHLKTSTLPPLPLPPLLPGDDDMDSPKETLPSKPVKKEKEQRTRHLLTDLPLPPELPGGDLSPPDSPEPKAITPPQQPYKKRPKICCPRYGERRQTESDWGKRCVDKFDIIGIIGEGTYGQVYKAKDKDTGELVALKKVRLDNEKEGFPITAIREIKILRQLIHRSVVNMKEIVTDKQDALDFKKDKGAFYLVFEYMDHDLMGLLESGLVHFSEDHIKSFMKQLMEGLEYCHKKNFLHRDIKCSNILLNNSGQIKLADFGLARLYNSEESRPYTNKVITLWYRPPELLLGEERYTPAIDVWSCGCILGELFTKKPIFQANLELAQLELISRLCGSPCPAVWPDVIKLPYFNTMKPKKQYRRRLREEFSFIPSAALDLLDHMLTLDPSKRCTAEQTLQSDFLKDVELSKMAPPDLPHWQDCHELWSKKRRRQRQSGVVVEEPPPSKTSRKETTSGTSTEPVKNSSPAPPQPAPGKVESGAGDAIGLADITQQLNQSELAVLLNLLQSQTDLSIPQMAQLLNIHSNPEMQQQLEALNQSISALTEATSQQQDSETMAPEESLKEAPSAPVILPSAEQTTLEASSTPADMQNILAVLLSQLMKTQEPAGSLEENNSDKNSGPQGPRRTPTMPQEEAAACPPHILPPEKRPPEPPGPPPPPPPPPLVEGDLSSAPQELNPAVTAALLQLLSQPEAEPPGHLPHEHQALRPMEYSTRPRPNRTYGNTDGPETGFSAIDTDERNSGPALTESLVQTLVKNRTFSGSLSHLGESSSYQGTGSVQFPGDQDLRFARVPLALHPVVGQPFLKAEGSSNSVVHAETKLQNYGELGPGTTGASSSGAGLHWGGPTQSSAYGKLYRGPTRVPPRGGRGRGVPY
# [4] = biological target: Cyclin-dependent kinase 7 (Homo sapiens, UniProt P50613)
# Chain of Cyclin-dependent kinase 7 (P50613 whole entry, canonical isoform): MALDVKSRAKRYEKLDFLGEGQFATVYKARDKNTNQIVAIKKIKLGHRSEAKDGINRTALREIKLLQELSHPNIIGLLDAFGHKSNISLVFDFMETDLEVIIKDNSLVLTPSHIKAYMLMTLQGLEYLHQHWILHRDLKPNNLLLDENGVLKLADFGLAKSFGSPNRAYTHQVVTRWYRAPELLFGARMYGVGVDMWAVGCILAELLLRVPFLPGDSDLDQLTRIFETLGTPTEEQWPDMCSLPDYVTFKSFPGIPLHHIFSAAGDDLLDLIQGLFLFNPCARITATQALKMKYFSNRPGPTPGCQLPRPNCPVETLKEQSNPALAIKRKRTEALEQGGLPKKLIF
# [5] = biological target: Casein kinase I isoform epsilon (Homo sapiens, UniProt P49674)
# Chain of Casein kinase I isoform epsilon (P49674 whole entry, canonical isoform): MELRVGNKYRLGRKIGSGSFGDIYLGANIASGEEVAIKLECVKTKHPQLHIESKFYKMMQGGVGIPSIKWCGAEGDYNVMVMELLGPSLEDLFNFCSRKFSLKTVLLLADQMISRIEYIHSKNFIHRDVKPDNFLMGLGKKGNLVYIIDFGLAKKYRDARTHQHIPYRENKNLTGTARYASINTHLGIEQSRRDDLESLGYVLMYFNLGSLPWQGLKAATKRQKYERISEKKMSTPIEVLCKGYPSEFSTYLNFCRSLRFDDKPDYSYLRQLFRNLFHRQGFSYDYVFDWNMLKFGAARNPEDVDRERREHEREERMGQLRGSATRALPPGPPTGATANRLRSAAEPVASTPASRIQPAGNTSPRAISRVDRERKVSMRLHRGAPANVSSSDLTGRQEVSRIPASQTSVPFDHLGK
# [6] = biological target: DnaJ homolog subfamily A member 1 (Homo sapiens, UniProt P31689)
# Chain of DnaJ homolog subfamily A member 1 (P31689 whole entry): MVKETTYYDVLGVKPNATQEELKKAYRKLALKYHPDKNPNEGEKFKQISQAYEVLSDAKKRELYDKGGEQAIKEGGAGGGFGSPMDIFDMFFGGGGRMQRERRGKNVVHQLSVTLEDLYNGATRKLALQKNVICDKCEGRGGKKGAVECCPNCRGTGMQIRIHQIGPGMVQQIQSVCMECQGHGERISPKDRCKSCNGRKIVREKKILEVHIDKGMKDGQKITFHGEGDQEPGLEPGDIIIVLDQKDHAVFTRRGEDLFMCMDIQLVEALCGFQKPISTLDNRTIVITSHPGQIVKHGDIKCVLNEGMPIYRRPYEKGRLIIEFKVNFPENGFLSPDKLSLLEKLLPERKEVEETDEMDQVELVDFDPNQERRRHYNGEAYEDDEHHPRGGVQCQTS
# [7] = biological target: Inosine-5'-monophosphate dehydrogenase 2 (Homo sapiens, UniProt P12268)
# [8] = biological target: S-adenosylmethionine synthase isoform type-2 (Homo sapiens, UniProt P31153)
# Chain of S-adenosylmethionine synthase isoform type-2 (P31153 whole entry, canonical isoform): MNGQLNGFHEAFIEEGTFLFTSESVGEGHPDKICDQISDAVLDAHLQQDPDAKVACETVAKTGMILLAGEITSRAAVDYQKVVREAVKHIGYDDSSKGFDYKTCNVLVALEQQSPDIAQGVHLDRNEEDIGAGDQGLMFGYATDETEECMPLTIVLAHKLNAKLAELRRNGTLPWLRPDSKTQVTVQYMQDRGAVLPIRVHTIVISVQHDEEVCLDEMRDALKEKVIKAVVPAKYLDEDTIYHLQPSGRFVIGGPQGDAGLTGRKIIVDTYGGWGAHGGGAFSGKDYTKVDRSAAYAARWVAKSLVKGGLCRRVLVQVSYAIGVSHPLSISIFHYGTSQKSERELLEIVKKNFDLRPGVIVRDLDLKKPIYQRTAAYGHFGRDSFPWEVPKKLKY
# [9] = biological target: T2, Serine/threonine-protein kinase Nek1 (Homo sapiens, UniProt Q96PY6)
# T2 sequence (Q96PY6 whole entry): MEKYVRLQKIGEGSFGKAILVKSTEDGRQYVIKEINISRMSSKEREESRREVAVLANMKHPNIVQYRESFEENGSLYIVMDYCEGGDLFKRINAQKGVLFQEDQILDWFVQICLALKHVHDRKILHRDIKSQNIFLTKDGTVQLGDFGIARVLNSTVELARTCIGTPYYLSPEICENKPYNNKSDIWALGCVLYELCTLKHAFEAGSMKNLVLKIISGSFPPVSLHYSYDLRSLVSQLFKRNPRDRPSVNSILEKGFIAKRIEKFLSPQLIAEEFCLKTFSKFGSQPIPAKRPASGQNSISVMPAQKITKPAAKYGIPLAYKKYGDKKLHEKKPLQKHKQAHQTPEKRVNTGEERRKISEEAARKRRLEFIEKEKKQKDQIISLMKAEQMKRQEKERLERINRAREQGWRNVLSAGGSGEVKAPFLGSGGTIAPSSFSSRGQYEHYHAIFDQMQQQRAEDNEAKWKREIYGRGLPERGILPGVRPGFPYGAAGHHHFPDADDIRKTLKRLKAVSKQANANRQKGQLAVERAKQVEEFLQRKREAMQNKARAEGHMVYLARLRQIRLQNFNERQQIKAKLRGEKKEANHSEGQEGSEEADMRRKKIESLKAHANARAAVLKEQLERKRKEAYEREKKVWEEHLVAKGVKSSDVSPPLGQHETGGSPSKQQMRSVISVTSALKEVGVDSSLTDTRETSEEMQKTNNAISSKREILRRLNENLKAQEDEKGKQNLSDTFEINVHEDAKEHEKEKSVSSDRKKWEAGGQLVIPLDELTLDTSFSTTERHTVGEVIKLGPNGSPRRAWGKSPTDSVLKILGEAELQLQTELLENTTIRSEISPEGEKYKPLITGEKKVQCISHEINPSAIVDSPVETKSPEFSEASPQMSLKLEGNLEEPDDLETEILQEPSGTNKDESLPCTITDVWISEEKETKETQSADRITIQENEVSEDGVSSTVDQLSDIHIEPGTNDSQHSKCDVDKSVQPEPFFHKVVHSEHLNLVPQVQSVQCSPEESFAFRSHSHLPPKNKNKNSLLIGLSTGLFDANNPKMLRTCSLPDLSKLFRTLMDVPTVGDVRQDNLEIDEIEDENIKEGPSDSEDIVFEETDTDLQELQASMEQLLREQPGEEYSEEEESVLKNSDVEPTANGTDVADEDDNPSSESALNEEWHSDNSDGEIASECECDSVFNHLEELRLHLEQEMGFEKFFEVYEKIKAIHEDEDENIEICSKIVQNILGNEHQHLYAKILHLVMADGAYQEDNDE
# [10] = biological target: Protein-tyrosine kinase 6 (Homo sapiens, UniProt Q13882)
# Chain of Protein-tyrosine kinase 6 (Q13882 whole entry): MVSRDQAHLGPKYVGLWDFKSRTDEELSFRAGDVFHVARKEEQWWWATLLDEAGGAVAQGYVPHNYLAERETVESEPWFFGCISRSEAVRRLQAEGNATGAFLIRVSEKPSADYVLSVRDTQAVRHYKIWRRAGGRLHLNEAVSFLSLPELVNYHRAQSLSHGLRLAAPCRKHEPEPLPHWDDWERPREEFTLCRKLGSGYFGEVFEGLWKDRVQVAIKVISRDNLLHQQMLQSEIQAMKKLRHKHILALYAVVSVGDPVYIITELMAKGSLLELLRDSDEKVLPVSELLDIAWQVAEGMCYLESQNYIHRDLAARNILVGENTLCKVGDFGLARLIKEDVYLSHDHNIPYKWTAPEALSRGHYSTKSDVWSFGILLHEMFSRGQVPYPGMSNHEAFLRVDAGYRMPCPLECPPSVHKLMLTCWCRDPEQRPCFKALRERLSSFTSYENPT
# [11] = biological target: Tyrosine-protein kinase SYK (Homo sapiens, UniProt P43405)
# Actin-related protein 2 = Actin-related protein 2 (Homo sapiens, UniProt P61160)
SMILES,Kd [1],Kd (Aurora kinase B),Kd [2],Kd [3],Kd [4],Kd [5],Kd [6],Kd [7],Kd [8],Kd [9],Kd [10],Kd [11],Kd (Actin-related protein 2)
C[C@@H](Oc1cc(C(=O)Nc2ccc(C(=O)N3CCN(C)CC3)cc2)nnc1N)c1c(Cl)ccc(F)c1Cl,> 30 µM (inactive),> 30 µM (inactive),> 30 µM (inactive),> 30 µM (inactive),> 30 µM (inactive),> 30 µM (inactive),> 30 µM (inactive),> 30 µM (inactive),> 30 µM (inactive),> 30 µM (inactive),> 30 µM (inactive),> 30 µM (inactive),–
CC(=O)c1cnc2ccc(-c3cc(Cl)c(O)c(Cl)c3)nc2c1N[C@H]1CC[C@H](CN(C)C)CC1,> 30 µM (inactive),0.126 µM (active),–,> 30 µM (inactive),–,–,> 30 µM (inactive),–,> 30 µM (inactive),> 30 µM (inactive),> 30 µM (inactive),> 30 µM (inactive),> 30 µM (inactive)
CCNC(=O)C#Cc1ccc2c(c1)NC(=O)/C2=C(\Nc1ccc(CN(C)C)cc1)c1ccccc1,> 30 µM (inactive),0.059 µM (active),> 30 µM (inactive),> 30 µM (inactive),> 30 µM (inactive),> 30 µM (inactive),> 30 µM (inactive),> 30 µM (inactive),> 30 µM (inactive),> 30 µM (inactive),> 30 µM (inactive),> 30 µM (inactive),> 30 µM (inactive)
COc1cc(Nc2ncc3c(n2)-c2ccc(Cl)cc2C(c2c(F)cccc2OC)=NC3)ccc1C(=O)O [ALISERTIB],> 30 µM (inactive),–,> 30 µM (inactive),> 30 µM (inactive),–,> 30 µM (inactive),–,> 30 µM (inactive),> 30 µM (inactive),> 30 µM (inactive),–,–,> 30 µM (inactive)
Cc1cc(Nc2ncc(Cl)c(Nc3ccccc3S(=O)(=O)C(C)C)n2)c(OC(C)C)cc1C1CCNCC1 [CERITINIB],> 30 µM (inactive),> 30 µM (inactive),> 30 µM (inactive),> 30 µM (inactive),> 30 µM (inactive),> 30 µM (inactive),> 30 µM (inactive),–,> 30 µM (inactive),> 30 µM (inactive),> 30 µM (inactive),> 30 µM (inactive),> 30 µM (inactive)
CNC(=O)c1nn(C)c2c1C(C)(C)Cc1cnc(Nc3ccc(N4CCN(C)CC4)cc3)nc1-2 [MILCICLIB],> 30 µM (inactive),7.54 µM,> 30 µM (inactive),> 30 µM (inactive),–,–,> 30 µM (inactive),–,> 30 µM (inactive),> 30 µM (inactive),> 30 µM (inactive),> 30 µM (inactive),–

# Second part, the compound after the results:
Kd [1],Kd (Aurora kinase B),Kd [2],Kd [3],Kd [4],Kd [5],Kd [6],Kd [7],Kd [8],Kd [9],Kd [10],Kd [11],Kd (Actin-related protein 2),SMILES
> 30 µM (inactive),> 30 µM (inactive),> 30 µM (inactive),> 30 µM (inactive),> 30 µM (inactive),60.5 µM (active),> 30 µM (inactive),–,–,> 30 µM (inactive),1.94 µM (active),> 30 µM (inactive),> 30 µM (inactive),Nc1ncnc2c1c(-c1cccc(OCc3ccccc3)c1)cn2[C@H]1C[C@@H](CN2CCC2)C1 [AEW-541]
> 30 µM (inactive),2.08 µM (active),> 30 µM (inactive),> 30 µM (inactive),0.003 µM (active),> 30 µM (inactive),> 30 µM (inactive),–,> 30 µM (inactive),> 30 µM (inactive),> 30 µM (inactive),> 30 µM (inactive),> 30 µM (inactive),Cc1nc(Nc2n[nH]c3c2CN(C(=O)N[C@H](CN(C)C)c2ccccc2)C3(C)C)c2sccc2n1 [PF-03758309]
> 30 µM (inactive),–,–,> 30 µM (inactive),–,–,> 30 µM (inactive),> 30 µM (inactive),> 30 µM (inactive),–,–,–,> 30 µM (inactive),O=C(NOCCO)c1cc(CN2OCCCC2=O)c(F)c(F)c1Nc1ccc(I)cc1F [RO-4987655]

# — ChEMBL document CHEMBL3991601, “The target landscape of clinical kinase drugs” (Science, 2017)
